Laboratory results: patent US5075289A, “9-R-azacyclic erythromycin antibiotics” (priority 1988, dated 1991)
Values after ≈ are worked out from the molar mass of the structure shown. Read-outs that look alike come from different tables or passages of the source.

Experiments:
Type in all cases: cell-based
[1] = test system: Enterococcus faecium ATCC 8043; assay: In vitro antibacterial activity, agar dilution MIC
Procedure: (§1) The antimicrobial spectra of a number of compounds of the invention were tested by the following method:
(§2) Twelve petri dishes containing successive aqueous dilutions of the test compound mixed with 10 ml of sterilized Brain Heart Infusion agar (Difco 0418-01-5) are prepared. Each plate is inoculated with 1:100 (or 1:10 for slow growing strains, primarily Micrococcus and Streptococcus) dilutions of up to 32 different microorganisms, using a Steers replicator block The inoculated plates are incubated at 35°-37° C. for 20-24 hours. In addition, a control plate, using BHI agar containing no test compound, is prepared and incubated at the beginning and end of each test.
(§3) An additional plate containing a compound having known susceptibility patterns for the organisms being tested and belonging to the same antibiotic class as the test compound is also prepared and incubated as a further control, as well as to provide test-to-test comparability. Erythromycin A was used for this purpose.
(§4) After incubation, each disk is read. The MIC is defined as the lowest concentration of drug yielding no growth, a slight haze, or sparsely isolated colonies on the inoculum spot as compared to the growth control.

[2] = test system: Escherichia coli DC-2; assay: In vitro antibacterial activity, agar dilution MIC
Procedure: as §1, §2, §3, §4

[3] = test system: Escherichia coli H560; assay: In vitro antibacterial activity, agar dilution MIC; details: E. coli H560, Brain Heart Infusion agar, 20-24 hours, read-out: MIC
Procedure: as §1, §2, §3, §4

[4] = test system: Escherichia coli Juhl; assay: In vitro antibacterial activity, agar dilution MIC
Procedure: as §1, §2, §3, §4

[5] = test system: Escherichia coli SS; assay: In vitro antibacterial activity, agar dilution MIC; details: read-out: MIC
Procedure: as §1, §2, §3, §4

[6] = test system: Micrococcus luteus ATCC 4698; assay: In vitro antibacterial activity, agar dilution MIC
Procedure: as §1, §2, §3, §4

[7] = test system: Micrococcus luteus ATCC 9341; assay: In vitro antibacterial activity, agar dilution MIC
Procedure: as §1, §2, §3, §4

[8] = test system: Staphylococcus aureus 45; assay: In vitro antibacterial activity, agar dilution MIC
Procedure: as §1, §2, §3, §4

[9] = test system: Staphylococcus aureus A5177; assay: In vitro antibacterial activity, agar dilution MIC; details: S. aureus A5177, Brain Heart Infusion agar, 20-24 hours, read-out: MIC
Procedure: as §1, §2, §3, §4

[10] = test system: Staphylococcus aureus ATCC 6538P; assay: In vitro antibacterial activity, agar dilution MIC; details: ATCC6538P, S. aureus ATCC 6538P, Brain Heart Infusion agar, 35-37° C., 20-24 hours, read-out: MIC
Procedure: as §1, §2, §3, §4

[11] = test system: Staphylococcus aureus CMX 503A; assay: In vitro antibacterial activity, agar dilution MIC; details: CMX503A
Procedure: as §1, §2, §3, §4

[12] = test system: Staphylococcus aureus CMX 553; assay: In vitro antibacterial activity, agar dilution MIC
Procedure: as §1, §2, §3, §4

[13] = test system: Staphylococcus aureus CMX 686B; assay: In vitro antibacterial activity, agar dilution MIC; details: CMX686B
Procedure: as §1, §2, §3, §4

[14] = test system: Staphylococcus epidermidis 3519; assay: In vitro antibacterial activity, agar dilution MIC; details: S. epidermidis 3519, Brain Heart Infusion agar, 20-24 hours, read-out: MIC
Procedure: as §1, §2, §3, §4

[15] = test system: Streptococcus agalactiae CMX 508; assay: In vitro antibacterial activity, agar dilution MIC
Procedure: as §1, §2, §3, §4

[16] = test system: Streptococcus bovis A5169; assay: In vitro antibacterial activity, agar dilution MIC; details: S. bovis A5169; Brain Heart Infusion agar, 20-24 hours; read-out: MIC
Procedure: as §1, §2, §3, §4

[17] = test system: Streptococcus pyogenes 2548 INDUC; assay: In vitro antibacterial activity, agar dilution MIC; details: S. pyogenes 2548 INDUC, Brain Heart Infusion agar, 20-24 hours, read-out: MIC
Procedure: as §1, §2, §3, §4

[18] = test system: Streptococcus pyogenes 930 CONST; assay: In vitro antibacterial activity, agar dilution MIC; details: 930CONST
Procedure: as §1, §2, §3, §4

[19] = test system: Streptococcus pyogenes EES61; assay: In vitro antibacterial activity, agar dilution MIC; details: S. pyogenes EES61, Brain Heart Infusion agar, 20-24 hours, read-out: MIC
Procedure: as §1, §2, §3, §4

[20] = test system: Staphylococcus aureus 45 RAR 2; assay: microbe, parasite or virus in culture; details: 45RAR2
Procedure: as §1, §2, §3, §4

[21] = test system: Staphylococcus aureus 642A; assay: In vitro antibacterial activity, agar dilution MIC; details: S. aureus 642A, Brain Heart Infusion agar, 20-24 hours, read-out: MIC
Procedure: as §1, §2, §3, §4

[22] = test system: Staphylococcus aureus NCTC 10649; assay: In vitro antibacterial activity, agar dilution MIC; details: NCTC10649, S. aureus NCTC 10649, Brain Heart Infusion agar, 20-24 hours, read-out: MIC
Procedure: as §1, §2, §3, §4

[23] = ATCC8043, E. faecium ATCC 8043, Brain Heart Infusion agar, 20-24 hours, read-out: MIC
[24] = DC2, E. coli DC-2, Brain Heart Infusion agar, 20-24 hours, read-out: MIC
[25] = E. coli Juhl, Brain Heart Infusion agar, 20-24 hours, read-out: MIC
[26] = E. coli SS, Brain Heart Infusion agar, 20-24 hours
[27] = ATCC4698, M. luteus ATCC 4698, Brain Heart Infusion agar, 20-24 hours, read-out: MIC
[28] = ATCC9341, M. luteus ATCC 9341, Brain Heart Infusion agar, 20-24 hours, read-out: MIC
[29] = S. aureus 45, Brain Heart Infusion agar, 20-24 hours, read-out: MIC
[30] = CMX508, S. agalactiae CMX 508, Brain Heart Infusion agar, 20-24 hours, read-out: MIC
[31] = CMX553, S. aureus CMX 553, Brain Heart Infusion agar, 20-24 hours, read-out: MIC

Compound	MIC [1, 23] [µg/mL]	MIC [2, 24] [µg/mL]	MIC [3] [µg/mL]	MIC [4, 25] [µg/mL]	MIC [5, 26] [µg/mL]	MIC [6, 27] [µg/mL]	MIC [7, 28] [µg/mL]	MIC [8, 29] [µg/mL]	MIC [9] [µg/mL]	MIC [10] [µg/mL]	MIC [14] [µg/mL]	MIC [15, 30] [µg/mL]	MIC [16] [µg/mL]	MIC [17] [µg/mL]	MIC [18] [µg/mL]	MIC [19] [µg/mL]	MIC [20] [µg/mL]	MIC [21] [µg/mL]	MIC [12, 31] [µg/mL]	MIC [22] [µg/mL]	other results
CC[C@H]1OC(=O)[C@H](C)[C@@H](O[C@H]2C[C@@](C)(OC)[C@@H](O)[C@H](C)O2)[C@H](C)[C@@H](O[C@@H]2O[C@H](C)C[C@H](N(C)C)[C@H]2O)[C@](C)(O)C[C@@H](C)[C@@H](N2CCNCC2)[C@H](C)[C@@H](O)[C@]1(C)O [Example 15]	12.5 (≈ 15.5 µM)	> 100	100 (≈ 124 µM)	> 100	1.56 (≈ 1.94 µM)	12.5 (≈ 15.5 µM)	3.1 (≈ 3.86 µM)	12.5 (≈ 15.5 µM)	> 100	3.1 (≈ 3.86 µM)	6.2 (≈ 7.71 µM)	1.56 (≈ 1.94 µM)	1.56 (≈ 1.94 µM)	100 (≈ 124 µM)	> 100	1.56 (≈ 1.94 µM)	12.5 (≈ 15.5 µM)	–	–	–	MIC [11]: 6.2 µg/mL (≈ 7.71 µM); MIC ([12]; CMX553): 6.2 µg/mL (≈ 7.71 µM); MIC [13]: 6.2 µg/mL (≈ 7.71 µM)
CC[C@H]1OC(=O)[C@H](C)[C@@H](O[C@H]2C[C@@](C)(OC)[C@@H](O)[C@H](C)O2)[C@H](C)[C@@H](O[C@@H]2O[C@H](C)C[C@H](N(C)C)[C@H]2O)[C@](C)(O)C[C@@H](C)[C@@H](N2CCN(C(=O)c3ccccc3)CC2)[C@H](C)[C@@H](O)[C@]1(C)O [Example 17]	0.39 (≈ 0.429 µM)	> 100	> 100	> 100	3.1 (≈ 3.41 µM)	0.78 (≈ 0.859 µM)	–	0.78 (≈ 0.859 µM)	12.5 (≈ 13.8 µM)	1.56 (≈ 1.72 µM)	1.56 (≈ 1.72 µM)	–	0.39 (≈ 0.429 µM)	25 (≈ 27.5 µM)	> 100	0.39 (≈ 0.429 µM)	3.1 (≈ 3.41 µM)	1.56 (≈ 1.72 µM)	1.56 (≈ 1.72 µM)	1.56 (≈ 1.72 µM)	MIC ([7]; ATCC9341, read-out: MIC): 0.2 µg/mL (≈ 0.22 µM); MIC ([15]; CMX508, read-out: MIC): 0.2 µg/mL (≈ 0.22 µM)
CC[C@H]1OC(=O)[C@H](C)[C@@H](O[C@H]2C[C@@](C)(OC)[C@@H](O)[C@H](C)O2)[C@H](C)[C@@H](O[C@@H]2O[C@H](C)C[C@H](N(C)C)[C@H]2O)[C@](C)(O)C[C@@H](C)[C@@H](N2CCS(=O)(=O)CC2)[C@H](C)[C@@H](O)[C@]1(C)O [Example 22]	1.56 (≈ 1.83 µM)	> 100	> 100	> 100	1.56 (≈ 1.83 µM)	3.1 (≈ 3.63 µM)	0.39 (≈ 0.457 µM)	6.2 (≈ 7.27 µM)	> 100	3.1 (≈ 3.63 µM)	6.2 (≈ 7.27 µM)	0.39 (≈ 0.457 µM)	0.39 (≈ 0.457 µM)	100 (≈ 117 µM)	> 100	0.39 (≈ 0.457 µM)	6.2 (≈ 7.27 µM)	6.2 (≈ 7.27 µM)	3.1 (≈ 3.63 µM)	3.1 (≈ 3.63 µM)	–
CC[C@H]1OC(=O)[C@H](C)[C@@H](O[C@H]2C[C@@](C)(OC)[C@@H](N)[C@H](C)O2)[C@H](C)[C@@H](O[C@@H]2O[C@H](C)C[C@H](N(C)C)[C@H]2O)[C@](C)(O)C[C@@H](C)[C@@H](N2CCOCC2)[C@H](C)[C@@H](O)[C@]1(C)O [Example 33]	–	–	3.1 (≈ 3.86 µM)	–	–	–	0.05 (≈ 0.0622 µM)	–	6.2 (≈ 7.71 µM)	0.78 (≈ 0.97 µM)	0.78 (≈ 0.97 µM)	0.1 (≈ 0.124 µM)	0.05 (≈ 0.0622 µM)	50 (≈ 62.2 µM)	> 100	0.1 (≈ 0.124 µM)	0.78 (≈ 0.97 µM)	0.78 (≈ 0.97 µM)	0.78 (≈ 0.97 µM)	0.78 (≈ 0.97 µM)	MIC ([1]; ATCC8043, read-out: MIC): 0.2 µg/mL (≈ 0.249 µM); MIC ([2]; DC2): 6.2 µg/mL (≈ 7.71 µM); MIC [4]: 12.5 µg/mL (≈ 15.5 µM); MIC [5]: 0.2 µg/mL (≈ 0.249 µM); MIC ([6]; ATCC4698): 0.39 µg/mL (≈ 0.485 µM); MIC [8]; 45: 0.39 µg/mL (≈ 0.485 µM)
